Results as given in patent US6462174B1, “Amorphous compound” (AstraZeneca AB, priority 2001, dated 2002).

Assays:
[1] = Thermal Mechanical Analysis (TMA); assay type: physicochemical; conditions: heating rate 10° C./min, 30-160° C.
Method: The method involves compressing 140 mg of material in a punch and die (3 mm) to 2 KN. The compressed pellet was then placed on the TMA and the 1.1 mm probe placed on the top face. A heating rate of 10° C./min was used and the sample was heated from 30-160° C.

[2] = Differential Scanning Calorimetry (DSC); assay type: physicochemical; conditions: dry amorphous lisinopril
Method: Differential Scanning Calorimetry (DSC) was performed on approximately 0.5-3 mg sample, using a Mettler DSC820 instrument, according to standard methods, for example those described in Höhne et al. (1996) Differential scanning Calorimetry, Springer, Berlin.

[3] = Dynamic vapour sorption (DVS) stability test; assay type: physicochemical; conditions: first sorption process (Cycle 1 Sorp), FIG. 3
[4] = cited from earlier work
[5] = Solubility in toluene (antisolvent); assay type: physicochemical
Method: When the volume was reduced to 100-150 ml, another portion of toluene was added and the procedure repeated.

glass transition temperature [1] | glass transition temperature (Tg) [2] | solubility in toluene [5] | Structure (SMILES) | physical stability to water-induced crystallisation (DVS) [3] | effective half-life of accumulation ([4]; multiple dosing) | time to peak serum concentrations ([4]; oral administration)
129 °C | 125 °C | – | NCCCC[C@H](NC(CCc1ccccc1)C(=O)O)C(=O)N1CCC[C@H]1C(=O)O (stereo partly drawn) [amorphous lisinopril, (S)-1-[N^2-(1-carboxy-3-phenylpropyl]-L-lysyl]-L-proline] | no expulsion of absorbed water due to recrystallisation was observed | – | –
– | – | insoluble | NCCCC[C@H](NC(CCc1ccccc1)C(=O)O)C(=O)N1CCC[C@H]1C(=O)O (stereo partly drawn) [lisinopril, (S)-1-[N^2-(1-carboxy-3-phenylpropyl]-L-lysyl]-L-proline] | – | about 12.6 hours | ≤ 7 h
